Here are results for 4 molecules from patent publication US12622892B2, “Methods for treating endometriosis” (THE TEXAS A&M UNIVERSITY SYSTEM, priority 2020, dated 2026).

For assay [1], the target named is T1, GAL4-NR4A1 (Homo sapiens, UniProt P22736).
T1 construct: GAL4 (fusion partner); expressed in transfected cells; host or cells: ESECT-7 patient-derived endometriotic cells
Description: Luciferase assay, GAL4-NR4A1 chimera/UAS-luc in ESECT-7 cells. It is filed as cell-based. The settings on record: ESECT-7 cells transfected with GAL4-NR4A1 chimera/UAS-luc; 18 hr treatment; FIG. 2A. As for the experimental part: (§1) Luciferase assay: ESECT-7 and ESECT-40 cells were plated on 12-well plates in DMEM/F12 supplemented with 2.5% charcoal-stripped FBS. After overnight attachment and growth, various amounts of DNA [i.e., UASx5-Luc (500 ng), GAL4-NR4A1 (50 ng), NBREx3-Luc (800 ng), NurREx3-Luc (800 ng) and Flag-NR4A1 (80 ng)] were co-transfected into each well using Lipofectamine 2000 reagent (Invitrogen, Carlsbad, CA) according to the manufacturer's protocol. After 6 hr of transfection, cells were treated with plating medium (as above) containing either solvent (DMSO) or indicated concentrations of the compound for 18 hr. Cells were then lysed and cell extracts were used for chemiluminescence quantification of luciferase activity. Luciferase activity values were normalized against corresponding protein concentration values determined by Bradford assay. Both GAL4- and Flag-NR4A1 constructs contain full-length NR4A1 coding sequence and all the plasmids used in this study were previously described.

Assay [2] concerns the target T2, NR4A1 (Homo sapiens, UniProt P22736).
T2 construct: expressed in transfected cells; host or cells: ESECT-7 patient-derived endometriotic cells
The assay is described as follows: Luciferase assay, NR4A1/NBRE-luc in ESECT-7 cells. The settings on record: ESECT-7 cells transfected with NR4A1/NBRE-luc; 18 hr treatment; FIG. 2A. It is filed as cell-based. As for the experimental part: as §1

Assay [3] relates to ESECT-7 cells. The assay is described as follows: Cell proliferation assay (MTT), ESECT-7. The settings on record: 24 hr; 5-10 μM DIM-C-pPhOH-3-Cl-5-OCH3, 15-25 μM DIM-C-pPhOH; FIG. 2C. In kind it is cell-based, human. As for the experimental part: (§2) Primary human endometriotic stromal cells from endometriosis patients: Ovarian endometrioma were isolated from endometriosis patients in the proliferative phase following the IRB-approved protocol. Isolated ectopic lesions were digested with collagenase type 3 (300 μg/ml) and DNaseI (40 μg/ml) for 90 min at 37° C., and then tissues were filtered through 150, 100, and 40 μm sieves to isolate endometrial stromal cells. The collected endometrial stromal cells were cultured in DMEM/F12 with 10% FBS plus 1× antibiotic/antimycotic solution and then validated by flow cytometry with a CD90 antibody (a mesenchymal marker). Henceforth, we refer to the stromal cells as ectopic endometrium isolated ovarian endometrioma (ESECT). As the control, primary normal endometrial stromal cells isolated from the biopsy of the eutopic endometrium of normal women (NEM) in the proliferative phase. All cells were incubated at 37° C. in CO2 incubator in an atmosphere of humidified 5% CO2 and 95% air.
(§3) Cell proliferation assay: Patient-derived endometriotic cells ESECT-7 and ESECT-40 were seeded into a 96-well plate, and the cells were then treated for 24 hr with either DMSO or different concentrations of DIM-C-pPhOH and DIM-C-pPhOH-3-Cl-5-OCH3. […] Dimethyl sulfoxide (DMSO) was added and incubated at […] for 10 min, and absorbance was measured at 570 nm.

Assay [4] concerns ESECT-40 cells. Description: Cell proliferation assay (MTT), ESECT-40. It is filed as cell-based, human. The settings on record: 24 hr; 5-10 μM DIM-C-pPhOH-3-Cl-5-OCH3, 15-25 μM DIM-C-pPhOH; FIG. 2C. How it is done: as §2, §3
Assay [5] deals with NEM cells. The assay is described as follows: Cell growth, normal endometrial NEM cells. The settings on record: 24 hr; 15-25 μM DIM-C-pPhOH, 5-10 μM DIM-C-pPhOH-3-Cl-5-OCH3; vs DMSO control; FIG. 4A. It is filed as cell-based, human. How it is done:
as §2, §3

For assay [6], the system named is NEM cells. Description: Western blotting of growth promoting and proapoptotic gene products, NEM cells. In kind it is cell-based, human. On the technique in general: A western blot detects proteins with antibodies after separation by electrophoresis.
For assay [7], the system named is ESECT-7 cells. Description: Annexin V staining, ESECT-7. In kind it is cell-based, human. The settings on record: 10 μM DIM-C-pPhOH-3-Cl-5-OCH3, 25 μM DIM-C-pPhOH, FIG. 3A. How it is done:
(§4) Annexin V staining: ESECT-7 and ESECT-40 cells were seeded in Nunc chambered cover glass followed by various drug treatments. The cells were then washed with ice-cold PBS, and 5 μL Alexa Fluor® 488 Annexin V with 100 μg/mL PI (as per the manufacturer's instructions) were added to the cells and incubated for 15 min, and the cells were observed using a Zeiss confocal fluorescence microscope.

For assay [8], the system named is ESECT-40 cells. Description: Annexin V staining, ESECT-40. In kind it is cell-based, human. As to conditions: 10 μM DIM-C-pPhOH-3-Cl-5-OCH3, 25 μM DIM-C-pPhOH, FIG. 3B. As for the experimental part: as §4
For assay [9], the system named is NEM cells. Description: Annexin V staining, NEM cells. The settings on record: 25 μM DIM-C-pPhOH, 10 μM DIM-C-pPhOH-3-Cl-5-OCH3, vs DMSO control, FIG. 4C. It is filed as cell-based, human.
For assay [10], the system named is ESECT-7 cells. The assay is described as follows: α-SMA immunofluorescence, ESECT-7. It is filed as cell-based, human. As to conditions: vs control, FIG. 5A. As for the experimental part:
Immunofluorescence: ESECT-7 and ESECT-40 cells were seeded in Nunc chambered cover-glass followed by various drug treatments. The cells were fixed with 4% paraformaldehyde in PBS for 20 minutes at 37° C. Cells were then blocked and incubated overnight with primary α-SMA antibody in the buffer (5% bovine serum albumin in PBS) at 4° C., followed by incubation with Alexa Fluor conjugated secondary antibody at a dilution of 1:250 for 2 hours at room temperature. Finally, cells were observed using a Zeiss confocal fluorescence microscope.

The test system of assay [11] is ESECT-7 cells. The assay is described as follows: Quantitative real-time PCR of fibrosis markers, ESECT-7. In kind it is cell-based, human. The settings on record: 24 hours, 20-25 μM DIM-C-pPhOH, 5-10 μM DIM-C-pPhOH-3-Cl-5-OCH3, vs DMSO control, FIG. 5C. How it is done: Quantitative real-time PCR: Total RNA was isolated from cultured cells according to the manufacturer's instructions (Zymo Research, Irvine, CA). The concentration and purity of the RNA samples were determined using a nanodrop spectrophotometer. Total RNA was reverse transcribed using iTaq Universal SYBR Green One-Step Kit (Thermo Fisher Scientific, Grand Island, NY) using the manufacturer's protocol with the CFX384 real-time PCR System (Bio-Rad). The comparative cycle threshold method was used for relative quantitation of samples. Values for each gene were normalized to expression levels of TATA-binding protein. The sequences of the primers used for real-time PCR included the following: α-SMA, 5′-GGCCGAGATCTCACTGACTAC-3′ (sense, SEQ ID NO. 13) and 5′-TTC ATG GAT GCC AGC AGA-3′ (antisense, SEQ ID NO. 14); COL1A1, 5′-CAG CCG CTT CAC CTA CAG C-3′ (sense, SEQ ID NO. 15) and 5′-TTTTGTATTCAATCAGTGTCTTGCC-3′ (antisense, SEQ ID NO. 16); CTGF, 5′-TTGGCCCAGACCCAACTATG-3′(sense, SEQ ID NO. 17) and 5′-CAGGAGGCGTTGTCATTGGT-3′ (antisense, SEQ ID NO. 18); FN, 5′-GGG AGC CTC GAA GAG C-3′ (sense 19) and 5′-AACAAGTACAAACCAACGCA-3′ (antisense, SEQ ID NO. 20) and TATA-binding protein, 5′-GATCAGAACAACAGCCTGCC-3′ (sense, SEQ ID NO. 21) and 5′-TTCTGAATAGGCTGTGGGGT-3′ […].
(In general: Quantitative PCR measures a nucleic acid by following its amplification.)

In assay [12] the test system is IHEECs. Description: Expression of fibrosis markers in IHEECs. It is filed as cell-based, human. As to conditions: 24 hours, vs control, FIG. 6B.
Assay [13] relates to Ishikawa cells. Description: Expression of fibrosis markers in Ishikawa cells. In kind it is cell-based. The settings on record: 24 hours, FIG. 6D.
Assay [14] has as its target T3, NR4A1 (Mus musculus, UniProt P12813).
T3 construct: endogenous in cells; host or cells: C2C12 muscle cells
The settings on record: C2C12 muscle cells; cited from earlier work.

Assay [15] concerns NESC and EESC cells. The settings on record: Zeng et al. 2018; cited from earlier work.

T1 sequence (P22736 with tags, fused parts or gaps): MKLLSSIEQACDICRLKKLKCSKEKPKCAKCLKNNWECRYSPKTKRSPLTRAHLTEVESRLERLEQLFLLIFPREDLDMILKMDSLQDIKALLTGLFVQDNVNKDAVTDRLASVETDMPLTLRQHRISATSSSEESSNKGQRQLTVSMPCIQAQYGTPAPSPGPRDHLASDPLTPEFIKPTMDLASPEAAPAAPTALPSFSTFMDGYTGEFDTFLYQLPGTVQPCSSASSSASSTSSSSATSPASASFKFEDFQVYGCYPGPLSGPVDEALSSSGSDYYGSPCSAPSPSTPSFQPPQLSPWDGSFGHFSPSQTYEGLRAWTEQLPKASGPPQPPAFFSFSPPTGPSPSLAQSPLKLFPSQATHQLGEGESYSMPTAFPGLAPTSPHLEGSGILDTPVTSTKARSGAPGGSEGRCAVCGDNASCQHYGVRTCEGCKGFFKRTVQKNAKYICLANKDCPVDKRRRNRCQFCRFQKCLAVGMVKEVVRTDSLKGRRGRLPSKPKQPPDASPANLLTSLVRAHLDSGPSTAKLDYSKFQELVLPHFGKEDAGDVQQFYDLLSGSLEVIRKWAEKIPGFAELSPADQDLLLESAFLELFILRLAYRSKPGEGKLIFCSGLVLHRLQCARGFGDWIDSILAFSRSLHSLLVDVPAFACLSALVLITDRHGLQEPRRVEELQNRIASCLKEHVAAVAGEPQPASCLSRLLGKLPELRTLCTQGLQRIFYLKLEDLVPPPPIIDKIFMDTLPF
T2 sequence (P22736 whole entry, species assumed): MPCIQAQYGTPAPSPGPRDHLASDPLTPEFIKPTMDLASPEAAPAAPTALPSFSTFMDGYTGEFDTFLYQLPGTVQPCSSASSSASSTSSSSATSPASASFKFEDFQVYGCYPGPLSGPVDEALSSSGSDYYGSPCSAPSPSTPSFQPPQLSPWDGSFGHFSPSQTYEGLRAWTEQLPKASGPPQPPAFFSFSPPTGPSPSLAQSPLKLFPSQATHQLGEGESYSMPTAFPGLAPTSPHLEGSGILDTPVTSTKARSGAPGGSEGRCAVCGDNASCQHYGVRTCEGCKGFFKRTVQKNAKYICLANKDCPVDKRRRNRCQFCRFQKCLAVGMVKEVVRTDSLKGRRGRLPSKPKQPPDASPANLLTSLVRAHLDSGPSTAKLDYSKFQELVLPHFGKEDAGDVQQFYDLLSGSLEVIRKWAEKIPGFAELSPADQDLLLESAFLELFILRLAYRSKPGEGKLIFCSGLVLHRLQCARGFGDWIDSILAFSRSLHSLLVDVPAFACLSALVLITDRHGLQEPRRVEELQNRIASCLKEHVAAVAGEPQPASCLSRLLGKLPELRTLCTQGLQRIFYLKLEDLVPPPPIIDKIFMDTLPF
T3 sequence (P12813 whole entry): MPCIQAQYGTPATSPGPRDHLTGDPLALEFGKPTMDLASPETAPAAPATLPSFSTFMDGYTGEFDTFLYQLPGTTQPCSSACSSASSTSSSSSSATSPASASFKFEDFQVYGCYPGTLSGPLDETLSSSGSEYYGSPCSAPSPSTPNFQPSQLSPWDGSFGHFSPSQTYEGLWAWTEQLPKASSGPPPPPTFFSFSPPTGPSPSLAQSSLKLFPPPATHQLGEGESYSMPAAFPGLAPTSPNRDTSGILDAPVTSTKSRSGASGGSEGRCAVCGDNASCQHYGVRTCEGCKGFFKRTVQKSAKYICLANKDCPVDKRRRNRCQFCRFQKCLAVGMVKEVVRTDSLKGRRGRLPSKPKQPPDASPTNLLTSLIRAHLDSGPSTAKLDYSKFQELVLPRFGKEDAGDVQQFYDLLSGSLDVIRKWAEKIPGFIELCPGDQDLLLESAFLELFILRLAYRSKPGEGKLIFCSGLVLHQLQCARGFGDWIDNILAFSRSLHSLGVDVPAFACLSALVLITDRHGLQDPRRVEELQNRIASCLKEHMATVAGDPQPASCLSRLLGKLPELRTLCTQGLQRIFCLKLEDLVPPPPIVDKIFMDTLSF

For `Oc1ccc(C(c2c[nH]c3ccccc23)c2c[nH]c3ccccc23)cc1` [DIM-C-pPhOH, 1,1-bis(3′-indolyl)-1-(p-hydroxyphenyl)methane], the “intrinsic transcriptional activity of GAL4-NR4A1” value in assay [1] is given as “inhibited the intrinsic transcriptional activity”. Also, the “intrinsic transcriptional activity of NR4A1” value in assay [2] was “inhibited the intrinsic transcriptional activity”. The “growth of ESECT-7 cells” value in assay [3] is “inhibited cell growth”. The “growth of ESECT-40 cells” value in assay [4] was “inhibited cell growth”. Besides, the “growth of normal endometrial NEM cells” value in [5] is on record as “did not suppress the growth”. Further, the “levels of the cleaved form of PARP and Bax” value in [6] (25 μM DIM-C-pPhOH, 10 μM DIM-C-pPhOH-3-Cl-5-OCH3, vs DMSO control, FIG. 4D) is recorded as “did not enhance”. Moreover, the “cMyc and EGFR expression” value in [6] (15-25 μM DIM-C-pPhOH, 5-10 μM DIM-C-pPhOH-3-Cl-5-OCH3, vs DMSO control, FIG. 4B) is “did not decrease”. The “Annexin V staining (apoptosis)” value in assay [7] and in assay [8] was “induced apoptosis” throughout. Also, in [9], the “Annexin V staining” value is “did not enhance”. Besides, in assay [10], the “expression of SMA levels” value is reported as “decreased expression of SMA levels”. In addition, in assay [11], the “mRNA levels of fibrosis markers (FN, Col1A1, CTGF)” value was “decreased mRNA levels”. In addition, the “expression of fibrosis markers (α-SMA, COL1A1, FN, CTGF)” value in assay [12] and in assay [13] was “decreased expression of fibrosis markers” throughout. In [14], the “NR4A1 agonist activity, induction of genes involved in glucose uptake” value is “worked as NR4A1 agonists”.

As for `Oc1ccc(C(c2c[nH]c3ccccc23)c2c[nH]c3ccccc23)cc1Cl` [4-OH-3-Cl, 1,1-bis(3′-indolyl)-1-(3-chloro-4-hydroxyphenyl)methane], the “intrinsic transcriptional activity of GAL4-NR4A1” value in assay [1] is given as “inhibited the intrinsic transcriptional activity”. Also, the “intrinsic transcriptional activity of NR4A1” value in assay [2] is recorded as “inhibited the intrinsic transcriptional activity”.

Turning to `CCCCCCCC(=O)c1c(O)cc(O)cc1CC(=O)OCC` [cytosporone β], the TGFβ-induced fibrosis result in assay [15] is reported as “inhibited TGFβ-induced fibrosis”.

As for `Oc1c(Br)cc(C(c2c[nH]c3ccccc23)c2c[nH]c3ccccc23)cc1Br` [4-OH-3,5-Br2], the “intrinsic transcriptional activity of GAL4-NR4A1” value in assay [1] is “inhibited the intrinsic transcriptional activity”. In addition, the “intrinsic transcriptional activity of NR4A1” value in [2] was “inhibited the intrinsic transcriptional activity”.
